From patent publication US8623916B2, “Polyunsaturated fatty acid and diol ester as an anti-acne agent” (Pierre Fabre Dermo-Cosmetique, priority 2008, dated 2014)

Legend:
[1] = system: interleukin 8 release by human HaCaT keratinocytes; details: 24 h with PUFA, then PMA/A23187 for 6 h (FIG. 3)
Protocol: The anti-inflammatory potential of the PUFAs was tested on human keratinocytes (HaCaT) stimulated by PMA/A23187. The changes induced by these PUFAs are evaluated on the production of eicosanoids and an inflammatory cytokine, interleukin 8, during an inflammatory process triggered by PMA/A23187. HaCaT cells are incubated on 96-well plates for 24 h in the presence of PUFAs, rinsed and then stimulated by PMA/A23187. The supernatants are recovered after 6 h of stimulation and IL-8 is quantified using the OptEIA™ ELISA kit (BD Pharmingen).

[2] = system: release of arachidonic acid and eicosanoids by HaCaT keratinocytes; experiment: Arachidonic acid metabolism in [3H]AA-labeled HaCaT keratinocytes stimulated by PMA/A23187; format: cell-based, human; details: HaCaT pretreated with PUFA 24 h, 500 nM PMA and 1 μM A23187 for 5 hours (FIGS. 4A-4C)
Protocol: HaCaT keratinocytes were incubated in 24-well plates in the presence of 1 μCi [^3H]AA for 18 hours under an atmosphere of 5% CO2. To test the capacity of
PUFAs to modulate the inflammatory response of keratinocytes, [^3H]-labeled HaCaT cells are pretreated with PUFAs for 24 hours, rinsed and then stimulated by 500 nM PMA and 1 μM A23187 for 5 hours. [^3H]AA and metabolites released by the HaCaT cells in the culture medium are extracted by column chromatography. The eluate is evaporated under N2. The dry residue is taken up in methanol and deposited on thin-layer silica plates activated beforehand for 1 hour at 100° C. The developing solvent is the organic phase of the mixture ethyl acetate/water/isooctane/acetic acid (110:100:50:20, v/v). [^3H]AA and metabolites (6-keto-prostaglandin F1α, 6k-PGF1α; prostaglandin (PG) FαE2D2; thromboxane (TX) B2, leukotrienes (LT) B4, C4, D4) are identified by a Berthold TLC scanner.

P. acnes strain = experiment: Antibacterial activity of the diols, MIC micromethod in liquid medium, P. acnes strain; format: cell-based, Propionibacterium acnes
Protocol: Tests were carried out with eight microbial strains using the dilution method described below.
Minimum inhibitory concentrations (MICs) are determined using a micromethod in liquid medium. Successive 1/2 dilutions of the test products in culture medium (Trypcase Soy Broth) are carried out in 96-well microplates in a final volume of 0.1 ml. The wells are inoculated with 0.01 ml of the bacterial suspensions titrated at roughly 1×10^7 CFU/ml. The microplates are incubated in optimal growth conditions and the MIC is read visually.
The columns labeled “BS” represent the bacteriostatic activity and the columns labeled “BC” represent the bactericidal activity of the diols (1% corresponds to a concentration of 10 mg/ml).

[3] = system: Staphylococcus aureus ATCC6538; experiment: Kinetics of antibacterial activity (residual CFU count), Staphylococcus aureus; format: cell-based; details: S. aureus
Text: (§1) The kinetics of the antibacterial activity of 1,2-octanediol were studied by evaluating the lethality of the bacteria over time by counting residual colony-forming units (CFUs) after contact of the test solution with the bacterial suspension.
(§2) The bacterial strains used are: Staphylococcus aureus ATCC6538 and Propionibacterium acnes ATCC6919. The culture medium used for Staphylococcus aureus ATCC6538 is Trypcase Soy Agar whereas the culture medium used for Propionibacterium acnes ATCC6919 is Schaedler agar. Stock solutions containing 1% and 0.5% 1,2-octanediol are prepared extemporaneously in 1% Polysorbate 20 (qsp WFI) and then adjusted to pH 7 with 0.1 N NaOH solution.
(§3) A volume of 5 ml of each stock solution is inoculated with 50 μl bacterial suspension titrated at roughly 1×10^8 CFU/ml.
(§4) After each time of contact (contact times tested: 5 min, 15 min, 30 min and 60 min), residual bacteria are counted by taking a 1 ml aliquot neutralized by 9 ml Trypcase Soy Broth and 10% Polysorbate 80.
(§5) Counting is carried out by adding 1 ml neutralized mixture and four 1/10 serial dilutions to the corresponding agar plates.
(§6) The agar plates are incubated at 36° C.±1° C. in aerobic atmosphere for S. aureus and anaerobic atmosphere for P. acnes (Generbag anaer, Biomerieux) for 72 hours and then the CFUs are counted.
(§7) • with R meaning “reduction”. It refers to the ratio between the number of inoculated bacteria and the number of residual bacteria after contact of the test solution with the bacterial suspension.

[4] = system: Propionibacterium acnes ATCC6919; experiment: Kinetics of antibacterial activity (residual CFU count), Propionibacterium acnes; format: cell-based; details: for Log R: P. acnes
Text: as §1, §2, §3, §4, §5, §6, §7

SMILES: CC/C=C\C/C=C\C/C=C\CCCCCCCC(=O)O [α-linolenic acid]
- effect on IL-8 secretion of stimulated keratinocytes [1]: inhibitory effect
- release of arachidonic acid [2]: significantly inhibits
- release of cyclooxygenated metabolites [2]: significantly inhibits
- release of lipoxygenated metabolites [2]: significantly inhibits

SMILES: CC/C=C\C/C=C\C/C=C\C/C=C\CCCCC(=O)O [stearidonic acid]
- release of arachidonic acid [2]: significantly inhibits
- release of cyclooxygenated metabolites [2]: significantly inhibits
- release of lipoxygenated metabolites [2]: significantly inhibits

SMILES: CCCCC/C=C\C/C=C\CCCCCCCC(=O)O [linoleic acid]
- release of arachidonic acid [2]: significantly inhibits
- release of cyclooxygenated metabolites [2]: significantly inhibits
- release of lipoxygenated metabolites [2]: significantly inhibits

SMILES: CCCCCCC(O)CCO (stereo not drawn) [1,3-nonanediol]
- bactericidal effect concentration (BC) (P. acnes strain): 3.12 mg/mL
- bacteriostatic effect concentration (BS) (P. acnes strain): 1.56 mg/mL

SMILES: CCCCCCC(O)CO (stereo not drawn) [1,2-octanediol]
- Log R ([3]; 0.5%, pH 7, contact 5 min): 0.4
- Log R ([3]; 0.5%, pH 7, contact 15 min): 0.1
- Log R ([3]; 0.5%, pH 7, contact 30 min): 0.2
- Log R ([3]; 0.5%, pH 7, contact 60 min): 0.5
- Log R ([3]; 1%, pH 7, contact 5 min): >5.3
- Log R ([3]; 1%, pH 7, contact 15 min): >5.3
- Log R ([3]; 1%, pH 7, contact 30 min): >5.3
- Log R ([3]; 1%, pH 7, contact 60 min): >5.3
- decrease of the population of P. acnes ([4]; 0.5%, physiological pH, one hour of contact): greater than 99.9%
- Log R ([4]; 0.5%, pH 7, contact 5 min): 0.2
- Log R ([4]; 0.5%, pH 7, contact 15 min): 0.7
- Log R ([4]; 0.5%, pH 7, contact 30 min): 1.8
- Log R ([4]; 0.5%, pH 7, contact 60 min): 3
- Log R ([4]; 1%, pH 7, contact 5 min): >5
- Log R ([4]; 1%, pH 7, contact 15 min): >5
- Log R ([4]; 1%, pH 7, contact 30 min): >5
- Log R ([4]; 1%, pH 7, contact 60 min): >5

SMILES: CCCCC/C=C\C/C=C\C/C=C\CCCCC(=O)O [γ-linolenic acid]
- effect on IL-8 secretion of stimulated keratinocytes [1]: inhibitory effect
